# According to US12415786B2, “Substituted 2-heteroarylaminobenzenes and the salts thereof and their use as herbicidal agents” (Bayer Aktiengesellschaft, priority 2019, dated 2025):
# Legend:
# Format in all cases: in vivo
# [1] = system: Setaria viridis; test: Herbicidal pre-emergence action (greenhouse pots), SETVI; conditions: 1280 g/ha, visual scoring after about 3 weeks vs untreated controls
# Source text: (§1) In the examples and tables below, the following abbreviations are used: • Undesired Plants/Weeds: • ABUTH: Abutilon theophrasti • AGSTE: Agrostis tenuis • AMARE Amaranthus retroflexus • ECHCG: Echinochloa crus-galli • LOLRI: Lolium rigidum • MATIN: Matricaria inodora • POAAN: Poa annua • SETVI: Setaria viridis • STEME: Stellaria media A. Herbicidal Early Post-Emergence Action Seeds of mono- and dicotyledonous weed plants were placed in plastic pots in sandy loam soil (doubly sown with one species each of mono- or dicotyledonous weed plants per pot) and covered with soil. The compounds of the invention, formulated in the form of wettable powders (WP) or as emulsion concentrates (EC), were then applied onto the surface of the covering soil as aqueous suspension or emulsion with addition of 0.5% additive at a water application rate of 600 liters per hectare (converted). After the treatment, the pots were placed in a greenhouse and kept under good growth conditions for the test plants. After about 3 weeks, the effect of the preparations was scored visually in comparison with untreated controls as percentages. For example, 100% activity=the plants have died, 0% activity=like untreated control plants. Tables C1-C8 below show the effects of selected compounds of the general formula (I) according to Table 1 above on various harmful plants and an application rate corresponding to 1280 g/ha, which were obtained by the experimental procedure mentioned above.
# [2] = system: Poa annua; test: Herbicidal early post-emergence action (96-well microtiter plates), POAAN; conditions: 1900 g/ha, scored 9 to 12 days after treatment, 100% = plants have died, 0% = like untreated control plants
# Source text: (§2) In the examples and tables below, the following abbreviations are used: • Undesired Plants/Weeds: • ABUTH: Abutilon theophrasti • AGSTE: Agrostis tenuis • AMARE Amaranthus retroflexus • ECHCG: Echinochloa crus-galli • LOLRI: Lolium rigidum • MATIN: Matricaria inodora • POAAN: Poa annua • SETVI: Setaria viridis • STEME: Stellaria media A. Herbicidal Early Post-Emergence Action Seeds of monocotyledonous and dicotyledonous weed plants were placed in 96-well microtiter plates in quartz sand and grown in a climatized chamber under controlled growth conditions. 5 to 7 days after sowing, the test plants were treated at the cotyledon stage. The compounds according to the invention, formulated in the form of emulsion concentrates (EC), were applied with a water application rate of the equivalent of 2200 liters per hectare. After the test plants had been left to stand in the climatized chamber for 9 to 12 days under optimum growth conditions, the effect of the preparations was scored visually in comparison to untreated controls. Here, for example, 100% activity=the plants have died, 0% activity=like untreated control plants. Tables A1 to A2 below show the effects of selected compounds of the general formula (I) according to Table 1 above on various harmful plants and an application rate corresponding to 1900 g/ha, which were obtained by the experimental procedure mentioned above.
# [3] = system: Abutilon theophrasti; test: Herbicidal post-emergence action (greenhouse pots), ABUTH; conditions: 1280 g/ha, visual rating about 3 weeks after treatment vs untreated controls
# Source text: (§3) In the examples and tables below, the following abbreviations are used: • Undesired Plants/Weeds: • ABUTH: Abutilon theophrasti • AGSTE: Agrostis tenuis • AMARE Amaranthus retroflexus • ECHCG: Echinochloa crus-galli • LOLRI: Lolium rigidum • MATIN: Matricaria inodora • POAAN: Poa annua • SETVI: Setaria viridis • STEME: Stellaria media A. Herbicidal Early Post-Emergence Action Seeds of mono- and dicotyledonous weed plants were placed in plastic pots in sandy loam soil (doubly sown with in each case one species of mono- or dicotyledonous weed plants per pot), covered with soil and cultivated in a greenhouse under controlled growth conditions. 2 to 3 weeks after sowing, the test plants were treated at the one-leaf stage. The compounds of the invention, formulated in the form of wettable powders (WP) or as emulsion concentrates (EC), were applied onto the green parts of the plants as aqueous suspension or emulsion with addition of 0.5% additive at a water application rate of 600 liters per hectare (converted). After the test plants had been kept in the greenhouse under optimum growth conditions for about 3 weeks, the activity of the preparations was rated visually in comparison to untreated controls. For example, 100% activity=the plants have died, 0% activity=like untreated control plants. Tables B1-B8 below show the effects of selected compounds of the general formula (I) according to Table 1 above on various harmful plants and an application rate corresponding to 1280 g/ha, which were obtained by the experimental procedure mentioned above.
# [4] = system: Amaranthus retroflexus; test: Herbicidal post-emergence action (greenhouse pots), AMARE; conditions: 1280 g/ha, visual rating about 3 weeks after treatment vs untreated controls
# Source text: as §3
# [5] = system: Matricaria inodora; test: Herbicidal pre-emergence action (greenhouse pots), MATIN; conditions: 1280 g/ha, visual scoring after about 3 weeks vs untreated controls
# Source text: as §1
# [6] = system: Stellaria media; test: Herbicidal post-emergence action (greenhouse pots), STEME; conditions: 1280 g/ha, visual rating about 3 weeks after treatment vs untreated controls
# Source text: as §3
# [7] = system: Amaranthus retroflexus; test: Herbicidal pre-emergence action (greenhouse pots), AMARE; conditions: 1280 g/ha, visual scoring after about 3 weeks vs untreated controls
# Source text: as §1
# [8] = system: Stellaria media; test: Herbicidal pre-emergence action (greenhouse pots), STEME; conditions: 1280 g/ha, visual scoring after about 3 weeks vs untreated controls
# Source text: as §1
# [9] = system: Agrostis tenuis; test: Herbicidal early post-emergence action (96-well microtiter plates), AGSTE; conditions: 1900 g/ha, scored 9 to 12 days after treatment, 100% = plants have died, 0% = like untreated control plants
# Source text: as §2
# [10] = system: Poa annua; test: Herbicidal pre-emergence action (greenhouse pots), POAAN; conditions: 1280 g/ha, visual scoring after about 3 weeks vs untreated controls
# Source text: as §1
# [11] = system: Poa annua; test: Herbicidal post-emergence action (greenhouse pots), POAAN; conditions: 1280 g/ha, visual rating about 3 weeks after treatment vs untreated controls
# Source text: as §3
# [12] = system: Echinochloa crus-galli; test: Herbicidal pre-emergence action (greenhouse pots), ECHCG; conditions: 1280 g/ha, visual scoring after about 3 weeks vs untreated controls
# Source text: as §1
# [13] = system: Echinochloa crus-galli; test: Herbicidal post-emergence action (greenhouse pots), ECHCG; conditions: 1280 g/ha, rated after about 3 weeks, 100% = plants have died, 0% = like untreated control plants
# Source text: as §3
SMILES,herbicidal activity SETVI [1],"POAAN (herbicidal activity, scored visually in comparison to untreated controls) [2]",herbicidal activity ABUTH [3],herbicidal activity AMARE [4],herbicidal activity MATIN [5],herbicidal activity STEME [6],herbicidal activity AMARE [7],herbicidal activity STEME [8],"AGSTE (herbicidal activity, scored visually in comparison to untreated controls) [9]",herbicidal activity POAAN [10],herbicidal activity POAAN [11],herbicidal activity ECHCG [12],"ECHCG (herbicidal activity, rated visually in comparison to untreated controls) [13]"
N#Cc1cccc(Nc2ccc(F)cn2)c1Oc1ccc(F)c(F)c1 [Example 1-111],90%,100%,90%,100%,90%,90%,100%,100%,100%,,,,
Cc1cccc(Nc2ncc(Cl)cn2)c1Oc1ccc(F)cc1 [Example 1-239],,100%,,100%,100%,100%,,,80%,100%,100%,,
N#Cc1cccc(Nc2ncccn2)c1Oc1cccc(F)c1 [Example 1-247],100%,,,100%,,,100%,100%,80%,100%,,90%,
N#Cc1cccc(Nc2ncccn2)c1Oc1ccc(C(F)(F)F)cc1 [Example 1-260],100%,100%,,100%,90%,90%,100%,100%,100%,90%,,90%,
N#Cc1cccc(Nc2ncc(Cl)cn2)c1Oc1cccc(F)c1 [Example 1-285],100%,,,100%,,,100%,100%,,100%,,90%,
N#Cc1cccc(Nc2ncc(Cl)cn2)c1Oc1ccc(F)cc1Cl [Example 1-293],100%,80%,90%,100%,,,100%,90%,80%,,,,
COc1cnc(Nc2cccc(C#N)c2Oc2ccc(F)cc2)nc1 [Example 1-312],90%,100%,100%,100%,100%,100%,100%,100%,100%,100%,,,
N#Cc1cccc(Nc2ncc(OC(F)F)cn2)c1Oc1ccc(F)cc1 [Example 1-314],100%,80%,90%,100%,,100%,,,100%,,,,
Fc1ccc(Oc2ccccc2Nc2ncc(Cl)cn2)cc1 [Example 1-337],,100%,90%,90%,,,90%,,100%,100%,,,90%
Clc1cnc(Nc2cccc(Cl)c2Oc2ccccc2)nc1 [Example 1-340],100%,100%,90%,100%,,100%,100%,90%,80%,100%,,,
O=[N+]([O-])c1cccc(Nc2ncc(Cl)cn2)c1Oc1ccc(F)cc1 [Example 1-350],,100%,,100%,100%,,100%,,80%,100%,100%,,
CC(=O)N(C)c1cccc(Nc2ncc(Cl)cn2)c1Oc1ccc(F)cc1 [Example 1-369],100%,80%,,100%,,,100%,100%,80%,,100%,,
Fc1ccc(Oc2c(I)cccc2Nc2ncc(Cl)cn2)cc1 [Example 1-372],100%,100%,,,,90%,100%,,100%,,100%,,
